Tests used:
Hep 3B2 [1] = assay: Cell cycle arrest in human Hep3B cells assessed as accumulation at G0/G1 phase at 5 uM after 48 hrs by propidium iodide staining based flow cytometry (reference value: 39.7 to 40.4%); type: functional
Hep 3B2 [2] = assay: Cell cycle arrest in human Hep3B cells assessed as accumulation at G0/G1 phase at 40 uM after 24 hrs by propidium iodide staining based flow cytometry (reference value: 36.3 to 39.0%); type: functional
Hep 3B2 [3] = assay: Cell cycle arrest in human Hep3B cells assessed as accumulation at S phase at 40 uM after 48 hrs by propidium iodide staining based flow cytometry (reference value: 20.8 to 24%); type: functional
Hep 3B2 [4] = assay: Cell cycle arrest in human Hep3B cells assessed as accumulation at G2/M phase at 40 uM after 72 hrs by propidium iodide staining based flow cytometry (reference value: 28.7 to 32.3%); type: functional
Hep 3B2 [5] = assay: Induction of apoptosis in human Hep3B cells assessed as ratio of cleaved caspase-3 to beta actin level at 40 uM after 72 hrs in presence of curcumin by Western blot analysis; type: functional
Hep 3B2 [6] = assay: Cell cycle arrest in human Hep3B cells assessed as accumulation at G2/M phase at 2.5 uM after 72 hrs by propidium iodide staining based flow cytometry (reference value: 28.7 to 32.3%); type: functional
Hep 3B2 [7] = assay: Induction of autophagy in human Hep3B cells assessed as ratio of LC3-2 to beta actin level at 40 uM after 72 hrs in presence of curcumin by Western blot analysis
Hep 3B2 [8] = assay: Cell cycle arrest in human Hep3B cells assessed as accumulation at S phase at 40 uM after 24 hrs by propidium iodide staining based flow cytometry (reference value: 22.6 to 27.1%); type: functional
Hep 3B2 [9] = assay: Down regulation of PTK2B expression in human Hep3B cells at 1 uM after 6 to 24 hrs by L1000 expression profiling method relative to control; type: functional
Hep 3B2 [10] = assay: Growth inhibition of human Hep3B cells after 48 hrs by MTT assay; type: functional, cell-based
Hep 3B2 [11] = assay: Down regulation of GNA15 expression in human Hep3B cells at 1 uM after 6 to 24 hrs by L1000 expression profiling method relative to control; type: functional
Hep 3B2 [12] = assay: Down regulation of SNX7 expression in human Hep3B cells at 1 uM after 6 to 24 hrs by L1000 expression profiling method relative to control; type: functional
Hep 3B2 [13] = assay: Induction of apoptosis in human Hep3B cells assessed as ratio of cleaved caspase-3 to beta actin level at 10 uM after 48 hrs in presence of curcumin by Western blot analysis; type: functional
Hep 3B2 [14] = assay: Cytotoxicity against human Hep3B cells at 20 uM after 24 hrs by MTT assay relative to control; type: functional
Hep 3B2 [15] = assay: Down regulation of FOS expression in human Hep3B cells at 1 uM after 6 to 24 hrs by L1000 expression profiling method relative to control; type: functional
Hep 3B2 [16] = assay: Up regulation of RPS6KA1 expression in human Hep3B cells at 1 uM after 6 to 24 hrs by L1000 expression profiling method relative to control; type: functional
Hep 3B2 [17] = assay: Down regulation of PPOX expression in human Hep3B cells at 1 uM after 6 to 24 hrs by L1000 expression profiling method relative to control; type: functional
Hep 3B2 [18] = assay: Down regulation of EDN1 expression in human Hep3B cells at 1 uM after 6 to 24 hrs by L1000 expression profiling method relative to control; type: functional
Hep 3B2 [19] = assay: Down regulation of FAM69A expression in human Hep3B cells at 1 uM after 6 to 24 hrs by L1000 expression profiling method relative to control; type: functional
Hep 3B2 [20] = assay: Down regulation of PLA2G4A expression in human Hep3B cells at 1 uM after 6 to 24 hrs by L1000 expression profiling method relative to control; type: functional
[21] = target: Glycogen synthase kinase-3 alpha (Homo sapiens) (UniProt P49840); assay: Inhibition of GSK3alpha phosphorylation at Ser21 in human Hep3B cells assessed as ratio of phosphorylated […] to beta-actin level at 10 uM after 48 hrs by Western blot analysis; type: cell-based
Glycogen synthase kinase-3 alpha (Homo sapiens), sequence (P49840 2-483 limits assumed): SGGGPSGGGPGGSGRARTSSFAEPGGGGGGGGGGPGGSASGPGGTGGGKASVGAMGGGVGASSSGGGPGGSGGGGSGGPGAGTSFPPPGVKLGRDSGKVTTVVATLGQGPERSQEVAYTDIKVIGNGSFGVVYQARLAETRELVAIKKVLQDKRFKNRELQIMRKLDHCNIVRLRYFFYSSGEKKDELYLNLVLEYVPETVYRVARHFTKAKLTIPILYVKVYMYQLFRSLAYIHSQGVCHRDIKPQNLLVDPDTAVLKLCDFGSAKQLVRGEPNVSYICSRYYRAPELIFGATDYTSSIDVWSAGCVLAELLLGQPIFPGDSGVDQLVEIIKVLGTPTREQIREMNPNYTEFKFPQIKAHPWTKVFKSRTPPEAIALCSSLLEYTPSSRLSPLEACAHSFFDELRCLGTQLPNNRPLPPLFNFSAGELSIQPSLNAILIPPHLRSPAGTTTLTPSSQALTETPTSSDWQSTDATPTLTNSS

Hep 3B2 [22] = assay: Up regulation of CDKN1A expression in human Hep3B cells at 1 uM after 6 to 24 hrs by L1000 expression profiling method relative to control; type: functional
Hep 3B2 [23] = assay: Down regulation of UBE2J1 expression in human Hep3B cells at 1 uM after 6 to 24 hrs by L1000 expression profiling method relative to control; type: functional
Hep 3B2 [24] = assay: Down regulation of SNX13 expression in human Hep3B cells at 1 uM after 6 to 24 hrs by L1000 expression profiling method relative to control; type: functional
Hep 3B2 [25] = assay: Down regulation of PPP1R13B expression in human Hep3B cells at 1 uM after 6 to 24 hrs by L1000 expression profiling method relative to control; type: functional
Hep 3B2 [26] = assay: Up regulation of CCND1 expression in human Hep3B cells at 1 uM after 6 to 24 hrs by L1000 expression profiling method relative to control; type: functional
Hep 3B2 [27] = assay: Cell cycle arrest in human Hep3B cells assessed as accumulation at G0/G1 phase at 10 uM after 48 hrs in presence of curcumin by propidium iodide staining based flow cytometry (reference value: […] +/- […]%); type: functional
Hep 3B2 [28] = assay: Down regulation of SUPV3L1 expression in human Hep3B cells at 1 uM after 6 to 24 hrs by L1000 expression profiling method relative to control; type: functional
Hep 3B2 [29] = assay: Down regulation of PIK3CA expression in human Hep3B cells at 1 uM after 6 to 24 hrs by L1000 expression profiling method relative to control; type: functional
Hep 3B2 [30] = assay: Down regulation of ZNF586 expression in human Hep3B cells at 1 uM after 6 to 24 hrs by L1000 expression profiling method relative to control; type: functional
Hep 3B2 [31] = assay: Down regulation of HIST2H2BE expression in human Hep3B cells at 1 uM after 6 to 24 hrs by L1000 expression profiling method relative to control; type: functional
Hep 3B2 [32] = assay: Down regulation of DUSP11 expression in human Hep3B cells at 1 uM after 6 to 24 hrs by L1000 expression profiling method relative to control; type: functional
Hep 3B2 [33] = assay: Down regulation of PTPRC expression in human Hep3B cells at 1 uM after 6 to 24 hrs by L1000 expression profiling method relative to control; type: functional
Hep 3B2 [34] = assay: Down regulation of FZD1 expression in human Hep3B cells at 1 uM after 6 to 24 hrs by L1000 expression profiling method relative to control; type: functional
Hep 3B2 [35] = assay: Cell cycle arrest in human Hep3B cells assessed as accumulation at S phase at 10 uM after 48 hrs in presence of curcumin by propidium iodide staining based flow cytometry (reference value: 23.8 +/- 1.9%); type: functional
Hep 3B2 [36] = assay: Cell cycle arrest in human Hep3B cells assessed as accumulation at G2/M phase at 10 uM after 48 hrs in absence of curcumin by propidium iodide staining based flow cytometry (reference value: 36.6 +/- 2.9%); type: functional

Which Activity (Hep 3B2 [1]) does the source give for `COc1ccc(CNC(=O)Nc2ncc([N+](=O)[O-])s2)cc1` here?
The Activity was 38.5%.

What about the Activity (Hep 3B2 [2]) of the same compound?
Its Activity is 35%.

And the Activity (Hep 3B2 [3])?
Its Activity is 14.9%.

And the Activity (Hep 3B2 [4])?
The Activity was 42.8%.

What about the Ratio (Hep 3B2 [5]) of the same compound?
The Ratio was 1.1.

What about the Activity (Hep 3B2 [6]) of the same compound?
Its Activity is 35.3%.

What about the Ratio (Hep 3B2 [7]) of the same compound?
The Ratio was 2.6.

What about the Activity (Hep 3B2 [8]) of the same compound?
Its Activity is 21.1%.

`O=C1COc2ccccc2N1Cc1cn(CCC2OCCO2)nn1` was tested. Which log2FC (Hep 3B2 [9]) did it give?
Its log2FC is -3.3744.

What about the “growth inhibition (GI)” value (Hep 3B2 [10]) of the same compound?
Its value is “Dose-dependent effect”.

And the log2FC (Hep 3B2 [11])?
The log2FC was -4.0259.

And the log2FC (Hep 3B2 [12])?
Its log2FC is -4.1511.

What about the Ratio (Hep 3B2 [13]) of the same compound?
Its Ratio is 1.4.

What about the Activity (Hep 3B2 [14]) of the same compound?
The Activity was 24.1%.

What about the log2FC (Hep 3B2 [15]) of the same compound?
The log2FC was -3.1627.

What about the log2FC (Hep 3B2 [16]) of the same compound?
Its log2FC is 3.2908.

What about the log2FC (Hep 3B2 [17]) of the same compound?
The log2FC was -3.7552.

What about the log2FC (Hep 3B2 [18]) of the same compound?
The log2FC was -3.5482.

And the log2FC (Hep 3B2 [19])?
Its log2FC is -4.3309.

And the log2FC (Hep 3B2 [20])?
Its log2FC is -3.7476.

What about the Ratio [21] of the same compound?
The Ratio was 0.9.

What about the log2FC (Hep 3B2 [22]) of the same compound?
The log2FC was 3.0523.

What about the log2FC (Hep 3B2 [23]) of the same compound?
Its log2FC is -3.3451.

And the log2FC (Hep 3B2 [24])?
The log2FC was -4.142.

What about the log2FC (Hep 3B2 [25]) of the same compound?
The log2FC was -3.1647.

What about the log2FC (Hep 3B2 [26]) of the same compound?
Its log2FC is 3.2544.

What about the Activity (Hep 3B2 [27]) of the same compound?
The Activity was 24.8%.

And the log2FC (Hep 3B2 [28])?
The log2FC was -4.4808.

What about the log2FC (Hep 3B2 [29]) of the same compound?
The log2FC was -4.2586.

What about the log2FC (Hep 3B2 [30]) of the same compound?
Its log2FC is -4.0824.

And the log2FC (Hep 3B2 [31])?
The log2FC was -4.2274.

And the log2FC (Hep 3B2 [32])?
The log2FC was -3.3243.

What about the log2FC (Hep 3B2 [33]) of the same compound?
The log2FC was -3.9957.

And the log2FC (Hep 3B2 [34])?
The log2FC was -3.5324.

And the Activity (Hep 3B2 [35])?
Its Activity is 8.8%.

And the Activity (Hep 3B2 [36])?
Its Activity is 37.1%.
